Measured values reported in ChEMBL document CHEMBL1158646, “Potential Antitumor Agents: A Cytotoxic Cardenolide From Coronilla varia” (1979).
Converted amounts (≈) assume the structure as drawn. The source made the active and inactive calls. The rule behind the calls is not given here.

How the values were obtained:
[1] = Cytotoxicity against human 9KB cells; assay type: functional; details: read-out: ED50 (the source's name)
P388 [2] = test: Antitumor activity against mouse P388 cells in mouse assessed as median survival time at 8 mg/kg relative to control; assay type: functional, organism-based; parameters: dose 8 mg/kg
P388 [3] = test: Antitumor activity against mouse P388 cells in mouse assessed as median survival time at 1.25 mg/kg relative to control; assay type: functional
Lewis lung carcinoma = test: Cytotoxicity against mouse LLC cells; assay type: functional, cell-based
B16 = test: Cytotoxicity against mouse B16 cells; assay type: functional, cell-based
L1210 = test: Cytotoxicity against mouse L1210 cells; assay type: functional, cell-based

| SMILES | EC50 [1] [µg/mL] | Activity (P388 [2]) | T/C (P388 [3]) [%] | Activity (Lewis lung carcinoma) | Activity (B16) | Activity (L1210) |
| --- | --- | --- | --- | --- | --- | --- |
| C[C@]12CC[C@H]3[C@@H](CCC4=C[C@@H](O[C@@H]5OC[C@@H](O)[C@H](O)[C@H]5O)CC[C@@]43C=O)[C@@]1(O)CC[C@@H]2C1=CC(=O)OC1 [DEGLUCOHYRCANOSIDE] | 0.02 (≈ 0.0386 µM) | inactive | – | – | – | – |
| C[C@]12CC[C@H]3[C@@H](CCC4=C[C@@H](O[C@@H]5OC[C@@H](O[C@@H]6O[C@H](CO)[C@@H](O)[C@H](O)[C@H]6O)[C@H](O)[C@H]5O)CC[C@@]43C=O)[C@@]1(O)CC[C@@H]2C1=CC(=O)OC1 [HYRCANOSIDE] | 0.1 (≈ 0.147 µM) | – | 133 | inactive | inactive | inactive |
